{"source": "patent US20240158392A1", "about": "(Janssen Biotech, Inc., priority 2021, published 2024)"}
{"biological_target": "SIK2 (Homo sapiens, UniProt Q9H0K1)", "sequence (Q9H0K1 whole entry, species assumed)": "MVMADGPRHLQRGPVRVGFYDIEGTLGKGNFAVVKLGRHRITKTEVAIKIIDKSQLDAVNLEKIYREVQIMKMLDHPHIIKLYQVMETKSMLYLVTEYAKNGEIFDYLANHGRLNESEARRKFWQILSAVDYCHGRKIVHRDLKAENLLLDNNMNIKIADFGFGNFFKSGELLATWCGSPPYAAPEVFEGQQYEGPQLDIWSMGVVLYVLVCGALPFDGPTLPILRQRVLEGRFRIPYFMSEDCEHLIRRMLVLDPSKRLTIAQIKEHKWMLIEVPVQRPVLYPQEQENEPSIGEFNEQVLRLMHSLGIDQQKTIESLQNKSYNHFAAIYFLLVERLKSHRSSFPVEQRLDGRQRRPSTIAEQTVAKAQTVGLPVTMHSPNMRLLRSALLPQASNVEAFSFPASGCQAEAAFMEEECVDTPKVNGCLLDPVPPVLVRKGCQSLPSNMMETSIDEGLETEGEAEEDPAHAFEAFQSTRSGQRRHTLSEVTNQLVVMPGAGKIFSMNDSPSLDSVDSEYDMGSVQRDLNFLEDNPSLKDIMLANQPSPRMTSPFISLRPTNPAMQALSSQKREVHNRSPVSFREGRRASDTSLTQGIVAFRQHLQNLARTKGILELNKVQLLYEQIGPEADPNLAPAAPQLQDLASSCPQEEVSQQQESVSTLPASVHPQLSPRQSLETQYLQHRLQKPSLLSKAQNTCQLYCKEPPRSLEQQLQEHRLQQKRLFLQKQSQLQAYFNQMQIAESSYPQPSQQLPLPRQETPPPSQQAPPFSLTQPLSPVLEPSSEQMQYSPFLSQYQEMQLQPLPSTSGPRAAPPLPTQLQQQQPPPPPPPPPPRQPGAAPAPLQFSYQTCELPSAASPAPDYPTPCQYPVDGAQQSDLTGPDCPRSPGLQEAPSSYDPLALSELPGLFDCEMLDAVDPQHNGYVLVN", "assay": "SIK2 Enzymatic Assay High Version 2 (High ATP)", "format": "biochemical", "settings": "not given", "protocol": "(§1) All steps were performed at room temperature. Compounds were pre-plated onto an assay plate using an Echo acoustic dispenser (Labcyte, E550 or E555) at 80 nL per well. Enzyme prepared in assay buffer at 6 nM (2× final concentration) was added at 4 μL per well using the Multidrop Combi (Thermo Fisher—used for all additions in this assay) to the assay plate, spun for 1 min at 1000 rpm (Allegra 6KR Beckman Coulter centrifuge), and incubated with compound for 30 minutes. Assay buffer containing 6 mM ATP and 400 μM HDAC5tide (2× of final concentration for each substrate) was added at 4 μL per well to the assay plate and then spun as above and incubated for 2 hours. […] ADP-Glo Max Reagent (prepared and aliquoted as per manufacturer instructions) was then added at 8 μL per well, spun and incubated for 2 hours. ADP-Glo Max Detection (prepared and aliquoted as per manufacturer instructions) was added at 8 μL per well to the assay plate, which was spun and incubated for 1 hour. The plate is then read on the Pherastar (BMG Labtech) using a luminescence read. Gain is set between 2200-2500.", "units": {"IC50": "µM"}}
{"compound": "CCC(=O)c1ccc(O[C@H]2C[C@H]3COC[C@@H](C2)N3)c(-c2ccn3nc(NC(=O)C4CC4)cc3c2)c1", "note": "[Example 480, N-[5-[2-[[(1R,5S)-3-oxa-9-azabicyclo[3.3.1]nonan-7-yl]oxy]-5-propanoyl-phenyl]pyrazolo[1,5-a]pyridin-2-yl]cyclopropanecarboxamide]", "IC50": "< 0.000847"}
{"compound": "Cc1cc(-c2ccn3nc(Nc4ccc(C)nn4)cc3c2)c(O[C@@H]2[C@@H]3CO[C@H]2CN3)cn1", "note": "[Example 523, 5-[2-methyl-5-[[(1S,4S,7R)-2-oxa-5-azabicyclo[2.2.1]heptan-7-yl]oxy]-4-pyridyl]-N-(6-methylpyridazin-3-yl)pyrazolo[1,5-a]pyridin-2-amine]", "IC50": 0.00462}
{"compound": "Cc1cc(-c2ccn3nc(Nc4ccnnc4)cc3c2)c(O[C@H]2C[C@H]3COC[C@@H](C2)N3C)cn1", "note": "[Example 408, 5-[2-methyl-5-[[(1S,5R,7s)-9-methyl-3-oxa-9-azabicyclo[3.3.1]nonan-7-yl]oxy]-4-pyridyl]-N-pyridazin-4-yl-pyrazolo[1,5-a]pyridin-2-amine]", "IC50": 0.001}
{"compound": "Cc1cc(-c2ccn3nc(Nc4cccnn4)cc3c2)c(O[C@H]2C[C@H]3COC[C@@H](C2)N3C)cn1", "note": "[Example 419, 5-[2-methyl-5-[[(1R,5S,7s)-9-methyl-3-oxa-9-azabicyclo[3.3.1]nonan-7-yl]oxy]-4-pyridyl]-N-pyridazin-3-yl-pyrazolo[1,5-a]pyridin-2-amine]", "IC50": "< 0.000847"}
{"compound": "Cc1cc(-c2cn3cc(Nc4cc(C)nc(C)n4)nc3cn2)c(OC2C[C@H]3COC[C@@H](C2)N3C)cn1", "note": "(stereo partly drawn) [Example 349, N-(2,6-dimethylpyrimidin-4-yl)-6-[2-methyl-5-[[(1R,5S)-9-methyl-3-oxa-9-azabicyclo[3.3.1]nonan-7-yl]oxy]-4-pyridyl]imidazo[1,2-a]pyrazin-2-amine]", "IC50": "< 0.000847"}
{"compound": "Cc1cc(-c2ccn3nc(Nc4cnc(C(=O)NCC(C)(C)O)cn4)cc3c2)c(O[C@H]2C[C@H]3COC[C@@H](C2)N3)cn1", "note": "[Example 390, N-(2-hydroxy-2-methyl-propyl)-5-[[5-[2-methyl-5-[[(1S,5R,7s)-3-oxa-9-azabicyclo[3.3.1]nonan-7-yl]oxy]-4-pyridyl]pyrazolo[1,5-a]pyridin-2-yl]amino]pyrazine-2-carboxamide]", "IC50": "> 50"}
{"compound": "CC#Cc1ccc(O[C@H]2C[C@H]3COC[C@@H](C2)N3)c(-c2ccn3nc(NC(=O)C4CC4)cc3c2)c1", "note": "[Example 479, N-[5-[2-[[(1R,5S)-3-oxa-9-azabicyclo[3.3.1]nonan-7-yl]oxy]-5-prop-1-ynyl-phenyl]pyrazolo[1,5-a]pyridin-2-yl]cyclopropanecarboxamide]", "IC50": 0.0371}
{"biological_target": "SIK2 (Homo sapiens, UniProt Q9H0K1)", "assay": "SIK2 Enzymatic Assay High Version 2 (High ATP)", "format": "biochemical", "settings": "enzyme 6 nM, 6 mM ATP and 400 μM HDAC5tide (each 2× final concentration); 30 minutes pre-incubation, 2 hours; ADP-Glo Max luminescence; read-out: SIK2 high ATP IC50 (μM) (Test Example 2)", "protocol": "as §1", "units": {"IC50": "µM"}}
{"compound": "Cc1cnc(Nc2cc3cc(-c4cc(C)ncc4OCC(C)(C)O)ccn3n2)cn1", "note": "[Example 541, 2-methyl-1-[[6-methyl-4-[2-[(5-methylpyrazin-2-yl)amino]pyrazolo[1,5-a]pyridin-5-yl]-3-pyridyl]oxy]propan-2-ol]", "IC50": 0.0471}
{"compound": "Cc1cc(-c2ccn3nc(Nc4cc(C)nc(C)n4)cc3c2)c(O[C@@H]2CCS(=O)(=O)N(C)C2)cn1", "note": "(single isomer, unassigned) [Example 354, (*R)—N-(2,6-dimethylpyrimidin-4-yl)-5-[2-methyl-5-(2-methyl-1,1-dioxo-thiazinan-4-yl)oxy-4-pyridyl]pyrazolo[1,5-a]pyridin-2-amine]", "IC50": 0.0322}
{"compound": "Cc1cc(-c2ccn3nc(Nc4cc(C)nc(C)n4)cc3c2)c(O[C@H]2CC[C@H](C(N)=O)CC2)cn1", "note": "[Example 343, 4-[[4-[2-[(2,6-dimethylpyrimidin-4-yl)amino]pyrazolo[1,5-a]pyridin-5-yl]-6-methyl-3-pyridyl]oxy]cyclohexanecarboxamide]", "IC50": 0.0376}
{"compound": "Cc1cc(Nc2cc3cc(-c4cc(OC(F)F)ncc4OCC(C)(C)C#N)ccn3n2)nc(C)n1", "note": "[Example 329, 3-[[6-(difluoromethoxy)-4-[2-[(2,6-dimethylpyrimidin-4-yl)amino]pyrazolo[1,5-a]pyridin-5-yl]-3-pyridyl]oxy]-2,2-dimethyl-propanenitrile]", "IC50": 0.00358}
{"compound": "COCc1cc(-c2ccn3nc(Nc4cc(C)nc(C)n4)cc3c2)c(OCC(C)(C)C#N)cn1", "note": "[Example 668, 3-[[4-[2-[(2,6-dimethylpyrimidin-4-yl)amino]pyrazolo[1,5-a]pyridin-5-yl]-6-(methoxymethyl)-3-pyridyl]oxy]-2,2-dimethyl-propanenitrile]", "IC50": 0.319}
{"compound": "COc1cc(Nc2cc3cc(-c4cc(C)ncc4O[C@H]4CC[C@H](O)CC4)ccn3n2)cc(OC)c1C(=O)NCC(F)(F)F", "note": "[Example 241, 4-[[5-[5-(4-hydroxycyclohexoxy)-2-methyl-4-pyridyl]pyrazolo[1,5-a]pyridin-2-yl]amino]-2,6-dimethoxy-N-(2,2,2-trifluoroethyl)benzamide]", "IC50": 0.0401}
{"compound": "Cc1ncc(Nc2cc3cc(-c4cc(OC(F)F)ncc4OCC(C)(C)C#N)ccn3n2)cn1", "note": "[Example 641, 3-[[6-(difluoromethoxy)-4-[2-[(2-methylpyrimidin-5-yl)amino]pyrazolo[1,5-a]pyridin-5-yl]-3-pyridyl]oxy]-2,2-dimethyl-propanenitrile]", "IC50": 0.111}
{"compound": "Cc1cc(-c2ccn3nc(Nc4cc(C)nc(C)n4)cc3c2)c(OC[C@H]2C[C@H](C#N)C2)cn1", "note": "[Example 686, 3-[[4-[2-[(2,6-dimethylpyrimidin-4-yl)amino]pyrazolo[1,5-a]pyridin-5-yl]-6-methyl-3-pyridyl]oxymethyl]cyclobutanecarbonitrile]", "IC50": 0.0179}
{"compound": "Cc1cc(-c2ccn3nc(Nc4cc(C)c(=O)n(C)n4)cc3c2)c(OCC(C)(C)C#N)cn1", "note": "[Example 269, 3-[[4-[2-[(1,5-dimethyl-6-oxo-pyridazin-3-yl)amino]pyrazolo[1,5-a]pyridin-5-yl]-6-methyl-3-pyridyl]oxy]-2,2-dimethyl-propanenitrile]", "IC50": 0.00153}
{"compound": "Cc1cc(-c2ccn3nc(Nc4cc(C)c(=O)n(C)n4)cc3c2)c(OC[C@](C)(N)C(F)(F)F)cn1", "note": "(single isomer, unassigned) [Example 312, (*S)-6-[[5-[5-(2-amino-3,3,3-trifluoro-2-methyl-propoxy)-2-methyl-4-pyridyl]pyrazolo[1,5-a]pyridin-2-yl]amino]-2,4-dimethyl-pyridazin-3-one]", "IC50": "< 0.000847"}
{"compound": "Cc1cc(-c2ccn3nc(Nc4cc(C)nc(C)n4)cc3c2)c(O[C@H]2CCNC2)cn1", "note": "[Example 276, N-(2,6-dimethylpyrimidin-4-yl)-5-[2-methyl-5-[(3S)-pyrrolidin-3-yl]oxy-4-pyridyl]pyrazolo[1,5-a]pyridin-2-amine]", "IC50": 0.00921}
{"compound": "Cc1cc(-c2ccn3nc(Nc4cc(C)nc(C)n4)cc3c2)c(OC[C@H]2C[C@H](O)CO2)cn1", "note": "[Example 609, (3S,5R)-5-[[4-[2-[(2,6-dimethylpyrimidin-4-yl)amino]pyrazolo[1,5-a]pyridin-5-yl]-6-methyl-3-pyridyl]oxymethyl]tetrahydrofuran-3-ol]", "IC50": 0.0797}
{"compound": "Cc1cc(Nc2cc3cc(-c4cc(OC(F)F)ncc4OC[C@H]4CC(=O)NC4(C)C)ccn3n2)nc(C)n1", "note": "(single isomer, unassigned) [Example 739, (*S)-4-[[6-(difluoromethoxy)-4-[2-[(2,6-dimethylpyrimidin-4-yl)amino]pyrazolo[1,5-a]pyridin-5-yl]-3-pyridyl]oxymethyl]-5,5-dimethyl-pyrrolidin-2-one]", "IC50": 0.00119}
{"compound": "COC(=O)c1ccc(Nc2cc3cc(-c4cc(C)ncc4O[C@H]4CC[C@H](O)CC4)ccn3n2)cc1OC", "note": "[Example 246, methyl 4-[[5-[5-(4-hydroxycyclohexoxy)-2-methyl-4-pyridyl]pyrazolo[1,5-a]pyridin-2-yl]amino]-2-methoxy-benzoate]", "IC50": 0.0441}
{"compound": "COc1cc(Nc2cc3cc(-c4cc(C)ncc4O[C@H]4CC[C@H](O)CC4)ccn3n2)cc(OC)c1C(=O)NC1CC1", "note": "[Example 245, N-cyclopropyl-4-[[5-[5-(4-hydroxycyclohexoxy)-2-methyl-4-pyridyl]pyrazolo[1,5-a]pyridin-2-yl]amino]-2,6-dimethoxy-benzamide]", "IC50": 0.0239}
{"compound": "Cc1cc(Nc2cc3cc(-c4cc(NCC(F)F)ncc4OCC(C)(C)C#N)ccn3n2)nc(C)n1", "note": "[Example 667, 3-[[6-(2,2-difluoroethylamino)-4-[2-[(2,6-dimethylpyrimidin-4-yl)amino]pyrazolo[1,5-a]pyridin-5-yl]-3-pyridyl]oxy]-2,2-dimethyl-propanenitrile]", "IC50": 0.0127}
{"compound": "CNc1cc(-c2ccn3nc(Nc4cc(C)nc(C)n4)cc3c2)c(OC[C@@H]2CNCCO2)cn1", "note": "[Example 501, N-(2,6-dimethylpyrimidin-4-yl)-5-[2-(methylamino)-5-[[(2S)-morpholin-2-yl]methoxy]-4-pyridyl]pyrazolo[1,5-a]pyridin-2-amine]", "IC50": 0.00172}
{"compound": "CC(C)(C#N)COc1cnc(Cl)cc1-c1ccn2nc(NC(=O)C3CC3)cc2c1", "note": "[Example 666, N-[5-[2-chloro-5-(2-cyano-2-methyl-propoxy)-4-pyridyl]pyrazolo[1,5-a]pyridin-2-yl]cyclopropanecarboxamide]", "IC50": 0.0555}
{"compound": "Cc1cc(-c2ccn3nc(Nc4cc(C)nc(C(=O)NCC(F)(F)F)n4)cc3c2)c(OCC(C)(C)O)cn1", "note": "[Example 644, 4-[[5-[5-(2-hydroxy-2-methyl-propoxy)-2-methyl-4-pyridyl]pyrazolo[1,5-a]pyridin-2-yl]amino]-6-methyl-N-(2,2,2-trifluoroethyl)pyrimidine-2-carboxamide]", "IC50": 0.0734}
{"compound": "CC(C)(C#N)COc1cnc(OC(F)F)cc1-c1ccn2nc(Nc3cccnn3)cc2c1", "note": "[Example 708, 3-[[6-(difluoromethoxy)-4-[2-(pyridazin-3-ylamino)pyrazolo[1,5-a]pyridin-5-yl]-3-pyridyl]oxy]-2,2-dimethyl-propanenitrile]", "IC50": 0.00591}
